Data as given in the supplement of paper PMC10307832.

What was measured:
Test in all cases: relative viability (nuclei count vs DMSO), 5 days (fraction); higher = more cells survive
[1] = compound: CC(C)(C)c1cc(NC(=O)Nc2ccc(-c3cn4c(n3)sc3cc(OCCN5CCOCC5)ccc34)cc2)no1 [Quizartinib] + COc1cccc2cc(-c3nc([C@H]4CC[C@H](C(=O)O)CC4)n4ncnc(N)c34)[nH]c12 [OSI-027] (partner 0.5 µM)
In short: (§1)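 Values are medians from duplicate plates. Each reflects relative viability, defined as the nuclei count of treated wells over that of vehicle wells. Lung cancer cell lines in 1536-well plates were pin-tool dosed one day after seeding with one drug alone or with a fixed anchor-drug dose plus five library-drug doses (not always all listed) in √10 steps, then fixed, stained and imaged at 4× after 5 days.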

[2] = compound: CC(C)(C)c1cc(NC(=O)Nc2ccc(-c3cn4c(n3)sc3cc(OCCN5CCOCC5)ccc34)cc2)no1 [Quizartinib] + CS(=O)(=O)N1CCN(Cc2cc3nc(-c4cccc5[nH]ncc45)nc(N4CCOCC4)c3s2)CC1 [Pictilisib] (partner 1 µM)
In short: as §1

[3] = compound: COCC[n+]1c2c(n(Cc3cnccn3)c1C)C(=O)c1ccccc1C2=O [YM155] + CS(=O)(=O)CCNCc1ccc(-c2ccc3ncnc(Nc4ccc(OCc5cccc(F)c5)c(Cl)c4)c3c2)o1 [Lapatinib] (partner 2 µM)
In short: as §1

[4] = compound: COCC[n+]1c2c(n(Cc3cnccn3)c1C)C(=O)c1ccccc1C2=O [YM155] + Cc1nc(Nc2ncc(C(=O)Nc3c(C)cccc3Cl)s2)cc(N2CCN(CCO)CC2)n1 [Dasatinib] (partner 0.075 µM)
In short: as §1

Row | Cell Line | relative viability ([1]; first compound 0.001 µM) | relative viability ([1]; first compound 0.003162 µM) | relative viability ([1]; first compound 0.01 µM) | relative viability ([1]; first compound 0.03162 µM) | relative viability ([1]; first compound 0.1 µM) | relative viability ([2]; first compound 0.001 µM) | relative viability ([2]; first compound 0.003162 µM) | relative viability ([2]; first compound 0.01 µM) | relative viability ([2]; first compound 0.03162 µM) | relative viability ([2]; first compound 0.1 µM) | relative viability ([3]; first compound 0.002 µM) | relative viability ([3]; first compound 0.006325 µM) | relative viability ([3]; first compound 0.02 µM) | relative viability ([3]; first compound 0.06325 µM) | relative viability ([4]; first compound 0.002 µM) | relative viability ([4]; first compound 0.006325 µM) | relative viability ([4]; first compound 0.02 µM) | relative viability ([4]; first compound 0.06325 µM)
1 | SK-LU-1 | 0.316 | 0.312 | 0.377 | 0.35 | 0.37 | 0.545 | 0.547 | 0.606 | 0.491 | 0.588 | 0.835 | 0.85 | 0.971 | 0.653 | 0.215 | 0.175 | 0.185 | 0.206
2 | NCI-H1395 | 0.697 | 0.749 | 0.645 | 0.586 | 0.691 | 0.478 | 0.65 | 0.661 | 0.695 | 0.667 | 1.06 | 1.05 | 1.25 | 1.13 | 0.359 | 0.423 | 0.388 | 0.444
3 | NCI-H727 | 0.412 | 0.624 | 0.539 | 0.869 | 0.699 | 0.277 |  | 0.365 | 0.351 | 0.485 | 0.614 | 0.704 | 1.01 | 0.953 | 0.359 | 0.5 | 0.389 | 0.352
4 | NCI-H1975 | 0.682 | 0.624 | 0.722 | 0.673 | 0.572 | 0.288 | 0.282 | 0.283 | 0.284 | 0.281 | 0.701 | 0.774 | 0.856 | 0.175 | 0.312 | 0.334 | 0.352 | 0.233
5 | BEN | 0.259 | 0.326 | 0.325 | 0.282 | 0.284 | 0.499 | 0.613 | 0.55 | 0.496 | 0.543 | 0.59 | 0.746 | 0.782 | 0.86 | 0.331 | 0.269 | 0.36 | 0.348
6 | NCI-H2228 | 0.616 | 0.557 | 0.679 | 0.431 | 0.539 | 0.364 | 0.312 | 0.456 | 0.386 | 0.464 | 0.856 | 1.16 | 0.988 | 0.998 | 0.432 | 0.528 | 0.534 | 0.661
7 | NCI-H2023 | 0.363 | 0.469 | 0.367 |  | 0.355 | 0.224 | 0.271 | 0.216 | 0.121 | 0.245 | 0.884 | 0.827 | 0.867 | 0.49 | 0.486 | 0.588 | 0.52 | 0.374
8 | NCI-H1793 | 0.27 | 0.298 | 0.232 | 0.309 | 0.232 | 0.304 | 0.398 | 0.249 | 0.362 | 0.334 |  | 0.584 | 0.606 | 0.479 | 0.366 | 0.443 | 0.338 | 0.34
9 | NCI-H1993 | 0.487 | 0.46 | 0.672 | 0.621 | 0.544 | 0.917 | 0.776 | 0.812 | 0.807 | 0.808 | 0.81 | 0.736 | 0.682 | 0.757 | 0.568 | 0.572 | 0.478 | 0.539
